From the NIST ThermoML archive (doi:10.1021/acs.jced.5b00933)
± gives the expanded uncertainty stated by the source.

Assay: mn = molality of the nth substance listed, in mol/kg
Details: 100 kPa, Liquid; for speed of sound: Frequency=3 MHz, Sing-around technique in a fixed-path interferometer; for mass density: Vibrating tube method

Question: Which speed of sound (288.15 K, m1 = 0.2) does the source give for `O=C([O-])CC(O)(CC(=O)[O-])C(=O)[O-].[K+].[K+].[K+]` [potassium citrate] + O here?
Answer: 1505.5 ± 1.2 m/s

Question: And the speed of sound (288.15 K, m1 = 0.4)?
Answer: 1544.3 ± 1.3 m/s

Question: What about the speed of sound (288.15 K, m1 = 0.6) of the same molecule?
Answer: 1604 ± 1.3 m/s

Question: And the mass density (288.15 K, m1 = 0.2)?
Answer: 1036.81 ± 4 kg/m3

Question: What about the mass density (288.15 K, m1 = 0.4) of the same molecule?
Answer: 1073.44 ± 4 kg/m3

Question: And the mass density (288.15 K, m1 = 0.6)?
Answer: 1128.01 ± 4 kg/m3

Question: What about the speed of sound (298.15 K, m1 = 0.2) of the same molecule?
Answer: 1533 ± 1.2 m/s

Question: And the speed of sound (298.15 K, m1 = 0.4)?
Answer: 1569.1 ± 1.3 m/s

Question: And the speed of sound (298.15 K, m1 = 0.6)?
Answer: 1625.9 ± 1.3 m/s

Question: And the mass density (298.15 K, m1 = 0.2)?
Answer: 1034.22 ± 4 kg/m3

Question: And the mass density (298.15 K, m1 = 0.4)?
Answer: 1070.41 ± 4 kg/m3

Question: And the mass density (298.15 K, m1 = 0.6)?
Answer: 1124.42 ± 4 kg/m3

Question: And the speed of sound (308.15 K, m1 = 0.2)?
Answer: 1553.9 ± 1.2 m/s

Question: What about the speed of sound (308.15 K, m1 = 0.4) of the same molecule?
Answer: 1587.9 ± 1.3 m/s

Question: What about the speed of sound (308.15 K, m1 = 0.6) of the same molecule?
Answer: 1641.7 ± 1.3 m/s

Question: What about the mass density (308.15 K, m1 = 0.2) of the same molecule?
Answer: 1030.82 ± 4 kg/m3

Question: And the mass density (308.15 K, m1 = 0.4)?
Answer: 1066.68 ± 4 kg/m3

Question: And the mass density (308.15 K, m1 = 0.6)?
Answer: 1120.28 ± 4 kg/m3

Question: And the speed of sound (318.15 K, m1 = 0.2)?
Answer: 1568.9 ± 1.2 m/s

Question: And the speed of sound (318.15 K, m1 = 0.4)?
Answer: 1601.3 ± 1.3 m/s

Question: And the speed of sound (318.15 K, m1 = 0.6)?
Answer: 1652.5 ± 1.3 m/s

Question: What about the mass density (318.15 K, m1 = 0.2) of the same molecule?
Answer: 1026.73 ± 4 kg/m3

Question: What about the mass density (318.15 K, m1 = 0.4) of the same molecule?
Answer: 1062.34 ± 4 kg/m3

Question: And the mass density (318.15 K, m1 = 0.6)?
Answer: 1115.69 ± 4 kg/m3
